Ends that are not written are not given here.
Columns and labels:
[1] = test system: hPSCs (CHA15, H9, Pro2); experiment: Long-term culture with CPP-peptides: morphology, spontaneous differentiation, lineage marker RT-qPCR (Supplementary Fig. 6c); format: cell-based, human
Method: For CPP-conjugated peptide delivery, HeLa, 293T, and PA-1 cells were incubated with CPP-conjugated peptides or CPP-FITC at 2 μM in DMEM with 10% FBS for 12 h a day before cell harvest. hPSCs were treated with CPP-conjugated peptides at 10 μM in mTeSR Plus Medium, […] The ROCK inhibitor (Tocris Bioscience, Y-27632) treated-hPSCs were dissociated into single cells using Accutase (Merck, SCR005) and differentiated into ectoderm, mesoderm, and endoderm using the STEMdiff Trilineage Differentiation Kit ([…] Technologies, 05230) following the manufacturer’s protocol. Differentiated cells treated with CPP-conjugated peptides were analysed at 0, 3, and 5 days for ectoderm and endoderm, and at 0, 3, and 4 days for mesoderm. […]
cDNA was synthesised using RevertAid Reverse Transcriptase (Thermo Fisher Scientific, EP0441) with synthesised random hexamer (Macrogen) for total RNA or stem-loop primers for miRNA. For RT-qPCR reactions, the SensiFAST SYBR No-ROX kit (Meridian Bioscience) was used according to the manufacturer’s protocol. All data analysis and visualisation were conducted using R 3.6.1 [www.r-project.org] or GraphPad Prism 10. RT primers for miRNA and RT-qPCR primer sequences are provided in Supplementary Data 6. […]
Cell m orphology was visualised by phase contrast m icroscopy. T he red boundary indicated the spontaneously differentiated hPSCs. RT -qPCR was perform ed to m easure the relative levels of each lineage m ark er. […]
5p and m iR-16- 5p was shown as CDF graphs. T he relative level of m RNA was norm alised to that of U6 snRNA in (c, d, and f). K–S tests were used for e and f. Unpaired Student’s t-test was used for c , d, and f . * p < 0.05, ** p < 0.01, *** p < 0.001. Exact p -values were provided in Source data. Data are presented as m ean values ± SEM. All statistical test used were two- sided. T he m inim um num ber of independent biological replicate experim ents was a and e n = 2, b–d and f n = 3. T he experim ents were conducted three tim es, each iteration producing consistent results.

[2] = test system: p-UPF1 (Thr28); experiment: Western blot of p-UPF1 (Thr28) in CPP-peptide-treated hPSCs; format: cell-based, human; details: relative to CPP-P1 = 100, n = 3
Method: For CPP-conjugated peptide delivery, HeLa, 293T, and PA-1 cells were incubated with CPP-conjugated peptides or CPP-FITC at 2 μM in DMEM with 10% FBS for 12 h a day before cell harvest. hPSCs were treated with CPP-conjugated peptides at 10 μM in mTeSR Plus Medium, and the peptide-containing medium was changed every day over 10 days. The ROCK inhibitor (Tocris Bioscience, Y-27632) treated-hPSCs were dissociated into single cells using Accutase (Merck, SCR005) and differentiated into ectoderm, mesoderm, and endoderm using the STEMdiff Trilineage Differentiation Kit ([…] Technologies, 05230) following the manufacturer’s protocol. Differentiated cells treated with CPP-conjugated peptides were analysed at 0, 3, and 5 days for ectoderm and endoderm, and at 0, 3, and 4 days for mesoderm.
Protein samples were loaded for electrophoresis on sodium dodecyl sulphate (SDS) polyacrylamide gels, followed by Coomassie blue staining or transferred to nitrocellulose membranes (Cytiva) for WB. After blocking with 5% non-fat milk (Cellconic) in Tris-buffered saline with Tween-20 for 30 min at room temperature, the membranes were incubated with the following primary antibodies: anti-FLAG (GenScript, A00187; 1:2000), UPF1 (Cell Signaling Technology, 12040; 1:4000), UPF2 (Cell Signaling Technology, 11875; 1:2000), eIF4E (Cell Signaling Technology, 2067; 1:2000), β-actin (Sigma-Aldrich, A2228; 1:4000), GST (Cytiva, 27-4577-01; 1:2000), MYC (Calbiochem, OP10; 1:2000), Calnexin (Cell Signaling Technology, 2679; 1:4000), LIN28A (Cell Signaling Technology, 3978; 1:2000), pSer1096 phosphorylated UPF1 (1:2000)[58], or p-Thr28 phosphorylated UPF1 (ImmuQuest, IQ653; 1:2000). Primary antibodies were incubated overnight at 4 °C and then washed thrice with TBS-T, followed by incubation with secondary antibodies: Goat anti-Rabbit IgG (Invitrogen, 31460; 1:4000), Goat anti-Mouse IgG (Invitrogen, 31430; 1:4000), or Horse anti-Goat IgG (Vector Laboratories, PI-9500; 1:4000) for 1 h at room temperature. For pull-downed protein detection, all primary and secondary antibodies were diluted at 1:10,000. The blots were imaged using ChemiDoc XRS+ System (Bio-Rad) and the greyscale intensity values were quantified using Image Lab 3.0 software (Bio-Rad).
DAPI FITC Merge DAPI FITC Merge CHA15 H9 Pro2 H9
No peptide CPP-FITC Calnexin
For 2-day treatm ent For 4-day treatm ent […]
Student’s t-test was used. Data are presented as m ean values ± S.D (b) and mean values ± SEM (c and d). All statistical test us ed wer e two-s ided. T he m inim um num ber of independent biological replicate experim ents was a, b, and d n = 3, c n = 5. T he experim ents wer e conducted three tim es, each iteration producing consistent results. […]

[3] = RT-qPCR, CHA15 cell, group 1, mean of set1-set3, Mean of A = 1
[4] = RT-qPCR, CHA15 cell, group 2, mean of set1-set3, Mean of A = 1
[5] = RT-qPCR, CHA15 cell, group 3, mean of set1-set3, Mean of A = 1
[6] = RT-qPCR, H9 cell, group 1, mean of set1-set3, Mean of A = 1
[7] = RT-qPCR, H9 cell, group 2, mean of set1-set3, Mean of A = 1
[8] = RT-qPCR, Pro2 cell, group 1, mean of set1-set3, Mean of A = 1
[9] = RT-qPCR, Pro2 cell, group 2, mean of set1-set3, Mean of A = 1

KKKWCRKKKSSADEKRYRALKRTAERELLMNA [CPP-P8, CPP conjugated to P8]
cell morphology and spontaneous differentiation ([1]; hPSCs, over 15 days): altered the cell morphology, induced spontaneous differentiation, and regulated the levels of differentiated makers | levels of differentiated markers ([1]; hPSCs, proliferation): upregulated the levels of differentiated markers

N-QKLDQKELQLEPM-C [P1, reference compound]
p-UPF1 (Thr28)/Calnexin, mean ([2]; CHA15, 2-day treatment): 100% | p-UPF1 (Thr28)/Calnexin, mean ([2]; H9, 2-day treatment): 100% | p-UPF1 (Thr28)/Calnexin, mean ([2]; H9, 4-day treatment): 100% | p-UPF1 (Thr28)/Calnexin, mean ([2]; Pro2, 2-day treatment): 100%

KKKWCRKKKSSADEKRYRALKRTAERELLMNA [P8]
p-UPF1 (Thr28)/Calnexin, mean ([2]; CHA15, 2-day treatment): 277% | p-UPF1 (Thr28)/Calnexin, mean ([2]; H9, 2-day treatment): 91% | p-UPF1 (Thr28)/Calnexin, mean ([2]; H9, 4-day treatment): 183% | p-UPF1 (Thr28)/Calnexin, mean ([2]; Pro2, 2-day treatment): 250% | CDH9, Mean of column B [1, 3]: 3.237 | DLK1, Mean [1, 3]: 13.42 | DMBX1, Mean [1, 3]: 7.311 | RAX, Mean [1, 3]: 3.757 | DLK1, Mean [1, 4]: 23.82 | LHX2, Mean [1, 4]: 41.74 | POU5F1, Mean of column B [1, 4]: 0.6246 | RAX, Mean [1, 4]: 18.83 | CDH9, Mean of column B [1, 5]: 2.791 | LHX2, Mean [1, 5]: 5.887 | POU5F1, Mean of column B [1, 5]: 0.7547 | RAX, Mean [1, 5]: 2.315 | DLK1, Mean [1, 6]: 3.511 | DMBX1, Mean [1, 6]: 5.531 | LHX2, Mean [1, 6]: 2.919 | PAX6, Mean of column B [1, 6]: 3.972 | DLK1, Mean [1, 7]: 2.588 | LHX2, Mean [1, 7]: 115.8 | NANOG, Mean [1, 7]: 0.1136 | TBX6, Mean of column B [1, 7]: 22.31 | DLK1, Mean [1, 8]: 6.526 | LHX2, Mean [1, 8]: 0.3053 | POU5F1, Mean of column B [1, 8]: 0.5752 | RAX, Mean [1, 8]: 3.096 | DLK1, Mean [1, 9]: 9.273 | LHX2, Mean [1, 9]: 16.93 | NANOG, Mean [1, 9]: 0.2569 | POU5F1, Mean of column B [1, 9]: 0.08931

— publication PMC10762078, “Role of UPF1-LIN28A interaction during early differentiation of pluripotent stem cells” (Nature Communications, 2024)
